# Experimental data as given in patent publication US20110045101A1, “FUNGICIDAL SUBSTITUTED AZOLES” (E.I. Du Pont De Nemours and Company, priority 2009, published 2011).
# Tests used:
# Assay type in all cases: in vivo
# [1] = system: Rhizoctonia solani; assay: Test B: turf brown patch on bentgrass seedlings, sprayed the day before inoculation, visual disease rating; conditions: 200 ppm; 100 = 100% disease control, 0 = no control
# Source text: General protocol for preparing test suspensions for Tests A-J: The test compounds were first dissolved in acetone in an amount equal to 3% of the final volume and then suspended at the desired concentration (in ppm) in acetone and purified water (50/50 mix) containing 250 ppm of the surfactant Trem® 014 (polyhydric alcohol esters). The resulting test suspensions were then used in tests A-J. Spraying a 200 ppm test suspension to the point of run-off on the test plants was the equivalent of a rate of 500 g/ha. […] The test suspension was sprayed to the point of run-off on bentgrass (Agrostis sp.) seedlings. […] A dash (-) indicates no test results. All results are for 200 ppm except where followed by “*”, which indicates 40 ppm.
# [2] = system: Botrytis cinerea; assay: Test C: tomato Botrytis on tomato seedlings, sprayed the day before inoculation, visual disease rating; conditions: 200 ppm, 100 = 100% disease control
# How it was run: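 Each compound is first taken up in acetone at 3% of the final volume and then brought to the desired ppm in a 50:50 acetone–water mix with 250 ppm surfactant (polyhydric alcohol esters). Tomato seedlings receive the suspension to run-off, normally at 200 ppm, occasionally 40 ppm.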
# [3] = system: Alternaria solani; assay: Test D: tomato early blight, sprayed the day before inoculation, visual disease rating; conditions: 200 ppm, 100 = 100% disease control
# How it was run: (§1)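 Test rate was 200 ppm, sprayed to run-off and equal to 500 g/ha, or 40 ppm where marked. The compound was first taken up in acetone at 3% of final volume and suspended in acetone/purified water (50/50) containing 250 ppm Trem® 014.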
# [4] = system: Septoria nodorum; assay: Test F: wheat glume blotch on wheat seedlings, sprayed the day before inoculation, visual disease rating; conditions: 200 ppm, 100 = 100% disease control
# How it was run: as §1
# [5] = system: Septoria tritici; assay: Test G: wheat leaf blotch on wheat seedlings, sprayed the day before inoculation, visual disease rating; conditions: 200 ppm, 100 = 100% disease control
# How it was run: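 Visual disease ratings taken 19 days after transfer to a 20° C growth chamber, following 48 h in saturated atmosphere at 24° C. Seedlings had been sprayed to run-off one day before spore inoculation. Dose 200 ppm, or 40 ppm where starred.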
# [6] = system: Puccinia recondita f. sp. tritici; assay: Test I: wheat leaf rust on wheat seedlings, sprayed the day before inoculation, visual disease rating; conditions: 200 ppm, 100 = 100% disease control
# How it was run: as §1
# [7] = system: Erysiphe graminis f. sp. tritici; assay: Test J: wheat powdery mildew on wheat seedlings, sprayed the day before inoculation, visual disease rating; conditions: 200 ppm, 100 = 100% disease control
# How it was run: as §1
# [8] = system: Puccinia recondita f. sp. tritici; assay: Test H: wheat leaf rust, test suspension sprayed after inoculation of wheat seedlings, visual disease rating; conditions: 200 ppm; 100 = 100% disease control, 0 = no control relative to controls
# How it was run: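 Wheat seedlings inoculated with P. recondita spores, held 24 h saturated at 20 °C, then 2 days in growth chamber at 20 °C; compound suspension (acetone/water with Trem 014) sprayed to run-off afterwards. Rated visually; 200 ppm (≈500 g/ha) unless marked *, which denotes 40 ppm.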
# [9] = 0 = no control relative to controls
Structure (SMILES),Test B disease control rating [1] [%],Test C disease control rating ([2]; 0 = no control) [%],Test D disease control rating ([3]; 0 = no control) [%],Test F disease control rating ([4]; 0 = no control) [%],Test G disease control rating ([5]; 0 = no control) [%],Test I disease control rating ([6]; 0 = no control) [%],Test J disease control rating ([7]; 0 = no control) [%],"Test C disease control rating [2, 9] [%]","Test D disease control rating [3, 9] [%]","Test F disease control rating [4, 9] [%]","Test G disease control rating [5, 9] [%]",Test H disease control rating [8] [%],"Test I disease control rating [6, 9] [%]","Test J disease control rating [7, 9] [%]"
Cc1ccc(-n2cnc(Cl)c2-c2c(F)cccc2Cl)cc1 [compound 181],24,99,0,0,94,98,99,,,,,,,
N#Cc1ccc(F)c(-c2c(CCl)nc(Cl)n2-c2ccc(Cl)nc2)c1F [compound 717],,,,,,,,100,100,0,99,0,96,79
COc1ccc(-n2c(Cl)nc(C)c2-c2c(F)cccc2F)cn1 [compound 718],,,,,,,,100,100,97,100,99,100,100
COc1ccc(-n2c(Br)nc(C)c2-c2c(F)cccc2F)cn1 [compound 719],,,,,,,,99,100,98,99,99,100,100
CCOc1cc(F)c(-c2c(Cl)ncn2-c2ccc(C)cc2)c(F)c1 [compound 723],,,,,,,,100,99,0,97,66,68,95
CCOc1ccc(F)c(-c2c(Cl)nc(C)n2-c2cccc(F)c2)c1F [compound 724],,,,,,,,100,100,97,98,0,100,99
COc1ccc(-c2c(Cl)nc(Br)n2-c2ccc(F)cc2)c(Cl)c1 [compound 725],,,,,,,,100,99,73,99,15,91,98
COc1ccc(-c2c(Cl)ncn2-c2ccc(F)cc2)c(Cl)c1 [compound 726],,,,,,,,99,99,0,99,0,80,89
COc1cc(F)c(-c2c(Cl)nc(Cl)n2C(C)c2ncc(Cl)cc2Cl)c(F)c1 (stereo not shown) [compound 727],,,,,,,,98,0,0,89,15,74,21
COc1cc(F)c(-c2c(Cl)nc(Cl)n2-c2cncc(F)c2)c(F)c1 [compound 728],,,,,,,,100,100,100,99,100,100,100
COc1ccc(F)c(-c2c(Cl)nc(Br)n2-c2ccc(Cl)nc2)c1F [compound 730],,,,,,,,100,100,99,100,9,99,100
COc1cc(F)c(-c2c(C)nc(Br)n2-c2ccc(C(F)(F)F)nc2)c(F)c1 [compound 731],,,,,,,,99,100,99,100,0,99,100
COc1cc(F)c(-c2c(C)nc(Cl)n2-c2ccc(C(F)(F)F)nc2)c(F)c1 [compound 732],,,,,,,,100,100,100,99,0,99,100
COc1ccc(F)c(-c2c(C)nc(Cl)n2-c2ccc(Cl)nc2)c1F [compound 733],,,,,,,,100,100,100,100,41,100,100
COc1ccc(F)c(-c2c(C)nc(Br)n2-c2ccc(Cl)nc2)c1F [compound 735],,,,,,,,100,100,99,100,9,100,100
COc1cc(F)c(-c2c(C)nc(Br)n2-c2ccc(OC)nc2)c(F)c1 [compound 736],,,,,,,,99,100,97,100,99,100,100
COc1cc(F)c(-c2c(C)nc(Cl)n2-c2ccc(OC)nc2)c(F)c1 [compound 737],,,,,,,,100,100,100,100,100,100,100
COc1ccc(F)c(-c2c(Cl)nc(C)n2-c2ccc(Cl)nc2)c1F [compound 738],,,,,,,,100,100,100,100,96,100,100
COc1cc(F)c(-c2c(Cl)nc(C)n2-c2ccc(Cl)nc2)c(F)c1 [compound 739],,,,,,,,100,100,100,100,100,100,100
